From patent US20240238423A9, “TETRAHYDROISOQUINOLINE HETEROBIFUNCTIONAL BCL-XL DEGRADERS” (Treeline Biosciences, Inc., priority 2022, published 2024)
Read-outs that look alike come from different tables or passages of the source.

Target: T1, Human BCL-XL protein (N-terminal HiBiT tagged BCL-XL in HT1080 cells) (Homo sapiens, UniProt Q07817)
T1 construct: expressed in transfected cells; host or cells: HT-1080 (ATCC CCL-121), stably transduced with lentivirus pLV-UBC-N-HiBiT-BCL-XL-PGK-puro and selected with puromycin
T1 sequence (Q07817 whole entry): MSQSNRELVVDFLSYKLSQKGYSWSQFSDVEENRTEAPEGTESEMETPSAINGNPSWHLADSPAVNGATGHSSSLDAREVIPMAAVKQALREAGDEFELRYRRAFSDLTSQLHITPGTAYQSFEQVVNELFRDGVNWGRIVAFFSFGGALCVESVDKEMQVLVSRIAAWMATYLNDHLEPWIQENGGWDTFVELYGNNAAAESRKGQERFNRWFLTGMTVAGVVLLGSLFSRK
Test: HiBiT based degradation assay
Type: cell-based
Conditions: HT1080 cells expressing HiBiT-BCL-XL; for Ymin (6 h) / Ymin (24 h): BCL-XL degradation normalized with DMSO control; for DC50: BCL-XL degradation
How it was run: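 HT1080 cells stably transduced by lentivirus with N-terminally HiBiT-tagged human BCL-XL and kept under 1 μg/mL puromycin selection were seeded at three thousand cells per well in 40 μL RPMI 1640 into 384-well plates pre-spotted with compounds across a concentration range. Luminescence was read on a PHERAstar FSX, normalized to DMSO, and fitted with a four-parameter logistic model.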

Row | SMILES | Ymin (6 h) | Ymin (24 h) | DC50 (6 h, read-out: EC50 (6 h)) [µM] | DC50 (24 h, read-out: EC50 (24 h)) [µM]
1 | Cc1c(OCCCCCCCCCN2CCN(c3ccc4c(C5CCC(=O)NC5=O)nn(C)c4c3)CC2)cccc1-c1ccc(N2CCc3cccc(C(=O)Nc4nc5ccccc5s4)c3C2)nc1C(=O)O (stereo not shown) [Compound 155, 6-[8-(1,3-benzothiazol-2-ylcarbamoyl)-3,4-dihydro-1H-isoquinolin-2-yl]-3-[3-[9-[4-[3-(2,6-dioxo-3-piperidyl)-1-methyl-indazol-6-yl]piperazin-1-yl]nonoxy]-2-methyl-phenyl]pyridine-2-carboxylic acid] | B (50% ≤ Ymin < 70%) | A (Ymin < 50%) | < 0.1 | < 0.1
2 | Cc1c(OCCCCCCCCCN2CCN(c3cccc4c(C5CCC(=O)NC5=O)nn(C)c34)CC2)cccc1-c1ccc(N2CCc3cccc(C(=O)Nc4nc5ccccc5s4)c3C2)nc1C(=O)O (stereo not shown) [Compound 237, 6-[8-(1,3-benzothiazol-2-ylcarbamoyl)-3,4-dihydro-1H-isoquinolin-2-yl]-3-[3-[9-[4-[3-(2,6-dioxo-3-piperidyl)-1-methyl-indazol-7-yl]piperazin-1-yl]nonoxy]-2-methyl-phenyl]pyridine-2-carboxylic acid] | A (Ymin < 50%) | – | < 0.1 | –
3 | Cc1c(OC[C@@H](C)CC2CCN(CC(=O)Nc3ccc4c(C5CCC(=O)NC5=O)nn(C)c4c3)CC2)cccc1-c1ccc(N2CCc3cccc(C(=O)Nc4nc5ccccc5s4)c3C2)nc1C(=O)O (single isomer, unassigned) [Compound 263b] | – | A (Ymin < 50%) | – | < 0.1
4 | Cc1c(OCCCN2CCN(CC3CCC4(CC3)CN(c3cccc5c(C6CCC(=O)NC6=O)nn(C)c35)C4)CC2)cccc1-c1ccc(N2CCc3cccc(C(=O)Nc4nc5ccccc5s4)c3C2)nc1C(=O)O (stereo not shown) [Compound 260, 6-(8-(benzo[d]thiazol-2-ylcarbamoyl)-3,4-dihydroisoquinolin-2(1H)-yl)-3-(3-(3-(4-((2-(3-(2,6-dioxopiperidin-3-yl)-1-methyl-1H-indazol-7-yl)-2-azaspiro[3.5]nonan-7-yl)methyl)piperazin-1-yl)propoxy)-2-methylphenyl)picolinic acid] | – | A (Ymin < 50%) | – | < 0.1
5 | Cc1c(OCCN2C[C@@H](C)N(CC(=O)Nc3ccc4c(C5CCC(=O)NC5=O)nn(C)c4c3)[C@@H](C)C2)cccc1-c1ccc(N2CCc3cccc(C(=O)Nc4nc5ccccc5s4)c3C2)nc1C(=O)O (stereo partly drawn) [Compound 159a, 6-(8-(benzo[d]thiazol-2-ylcarbamoyl)-3,4-dihydroisoquinolin-2(1H)-yl)-3-(3-(2-((3R,5S)-4-(2-((3-(2,6-dioxopiperidin-3-yl)-1-methyl-1H-indazol-6-yl)amino)-2-oxoethyl)-3,5-dimethylpiperazin-1-yl)ethoxy)-2-methylphenyl)picolinic acid] | B (50% ≤ Ymin < 70%) | – | < 0.1 | –
6 | Cc1c(OCCCC2CCN(CC3CCN(c4cccc5c(C6CCC(=O)NC6=O)nn(C)c45)CC3)CC2)cccc1-c1ccc(N2CCc3cccc(C(=O)Nc4nc5ccccc5s4)c3C2)nc1C(=O)O (stereo not shown) [Compound 279, 6-[8-(1,3-benzothiazol-2-ylcarbamoyl)-3,4-dihydro-1H-isoquinolin-2-yl]-3-[3-[3-[1-[[1-[3-(2,6-dioxo-3-piperidyl)-1-methyl-indazol-7-yl]-4-piperidyl]methyl]-4-piperidyl]propoxy]-2-methyl-phenyl]pyridine-2-carboxylic acid] | – | A (Ymin < 50%) | – | < 0.1
7 | Cc1c(OCCC2CCN(CCCC3CCN(c4ccc5c(C6CCC(=O)NC6=O)nn(C)c5c4)CC3)CC2)cccc1-c1ccc(N2CCc3cccc(C(=O)Nc4nc5ccccc5s4)c3C2)nc1C(=O)O (stereo not shown) [Compound 287, 6-[8-(1,3-benzothiazol-2-ylcarbamoyl)-3,4-dihydro-1H-isoquinolin-2-yl]-3-[3-[2-[1-[3-[1-[3-(2,6-dioxo-3-piperidyl)-1-methyl-indazol-6-yl]-4-piperidyl]propyl]-4-piperidyl]ethoxy]-2-methyl-phenyl]pyridine-2-carboxylic acid] | – | A (Ymin < 50%) | – | < 0.1
8 | Cc1c(OCC[C@H]2CCN(CC(=O)Nc3cccc4c(C5CCC(=O)NC5=O)nn(C)c34)C2)cccc1-c1ccc(N2CCc3cccc(C(=O)Nc4nc5ccccc5s4)c3C2)nc1C(=O)O (stereo partly drawn) [Compound 231b, 6-[8-(1,3-benzothiazol-2-ylcarbamoyl)-3,4-dihydro-1H-isoquinolin-2-yl]-3-[3-[2-[(3R)-1-[2-[[3-(2,6-dioxo-3-piperidyl)-1-methyl-indazol-7-yl]amino]-2-oxo-ethyl]pyrrolidin-3-yl]ethoxy]-2-methyl-phenyl]pyridine-2-carboxylic acid] | – | B (50% ≤ Ymin < 70%) | – | < 0.1
9 | Cc1c(O[C@H]2CC[C@H](CCC(=O)Nc3ccc4c(C5CCC(=O)NC5=O)nn(C)c4c3)CC2)cccc1-c1ccc(N2CCc3cccc(C(=O)Nc4nc5ccccc5s4)c3C2)nc1C(=O)O (stereo partly shown) [Compound 125a, 6-(8-(benzo[d]thiazol-2-ylcarbamoyl)-3,4-dihydroisoquinolin-2(1H)-yl)-3-(3-(((1r,4r)-4-(3-((3-(2,6-dioxopiperidin-3-yl)-1-methyl-1H-indazol-6-yl)amino)-3-oxopropyl)cyclohexyl)oxy)-2-methylphenyl)picolinic acid] | C (Ymin ≥ 70%) | C (Ymin ≥ 70%) | 1 to 10 | 1 to 10
10 | Cc1c(O[C@H]2CC[C@H](CCCCN3CC[C@H](c4ccc5c(C6CCC(=O)NC6=O)nn(C)c5c4)C3)CC2)cccc1-c1ccc(N2CCc3cccc(C(=O)Nc4nc5ccccc5s4)c3C2)nc1C(=O)O (single isomer, unassigned) [Compound 332a] | – | A (Ymin < 50%) | – | < 0.1
11 | Cc1c(O[C@H]2CC[C@H](CCCCN3CCC[C@@H](c4ccc5c(C6CCC(=O)NC6=O)nn(C)c5c4)C3)CC2)cccc1-c1ccc(N2CCc3cccc(C(=O)Nc4nc5ccccc5s4)c3C2)nc1C(=O)O (single isomer, unassigned) [Compound 352b] | – | A (Ymin < 50%) | – | < 0.1
12 | Cc1c(O[C@H]2CC[C@@H](CCCC3CCN(c4ccc5c(C6CCC(=O)NC6=O)nn(C)c5c4)CC3)CC2)cccc1-c1ccc(N2CCc3cccc(C(=O)Nc4nc5ccccc5s4)c3C2)nc1C(=O)O (stereo partly shown) [Compound 311a, 6-(8-(benzo[d]thiazol-2-ylcarbamoyl)-3,4-dihydroisoquinolin-2(1H)-yl)-3-(3-(((1r,4s)-4-(3-(1-(3-(2,6-dioxopiperidin-3-yl)-1-methyl-1H-indazol-6-yl)piperidin-4-yl)propyl)cyclohexyl)oxy)-2-methylphenyl) picolinic acid] | – | B (50% ≤ Ymin < 70%) | – | < 0.1
13 | Cc1c(OCCC2CCN(CC(=O)N3CCN(c4ccc5c(C6CCC(=O)NC6=O)nn(C)c5c4)CC3)CC2)cccc1-c1ccc(N2CCc3cccc(C(=O)Nc4nc5ccccc5s4)c3C2)nc1C(=O)O (stereo not shown) [Compound 143, 6-(8-(benzo[d]thiazol-2-ylcarbamoyl)-3,4-dihydroisoquinolin-2(1H)-yl)-3-(3-(2-(1-(2-(4-(3-(2,6-dioxopiperidin-3-yl)-1-methyl-1H-indazol-6-yl)piperazin-1-yl)-2-oxoethyl)piperidin-4-yl)ethoxy)-2-methylphenyl)picolinic acid] | A (Ymin < 50%) | A (Ymin < 50%) | < 0.1 | < 0.1
14 | Cc1c(Oc2ccc(CCCC(=O)Nc3ccc4c(C5CCC(=O)NC5=O)nn(C)c4c3)cc2)cccc1-c1ccc(N2CCc3cccc(C(=O)Nc4nc5ccccc5s4)c3C2)nc1C(=O)O (stereo not shown) [Compound 132, 6-(8-(benzo[d]thiazol-2-ylcarbamoyl)-3,4-dihydroisoquinolin-2(1H)-yl)-3-(3-(4-(4-((3-(2,6-dioxopiperidin-3-yl)-1-methyl-1H-indazol-6-yl)amino)-4-oxobutyl)phenoxy)-2-methylphenyl)picolinic acid] | C (Ymin ≥ 70%) | B (50% ≤ Ymin < 70%) | 1 to 10 | 0.1 to 1
15 | Cc1c(OCC2CC3(CCN(CCN4CCN(c5ccc6c(C7CCC(=O)NC7=O)nn(C)c6c5)CC4)CC3)C2)cccc1-c1ccc(N2CCc3cccc(C(=O)Nc4nc5ccccc5s4)c3C2)nc1C(=O)O (stereo not shown) [Compound 225, 6-(8-(benzo[d]thiazol-2-ylcarbamoyl)-3,4-dihydroisoquinolin-2(1H)-yl)-3-(3-((7-(2-(4-(3-(2,6-dioxopiperidin-3-yl)-1-methyl-1H-indazol-6-yl)piperazin-1-yl)ethyl)-7-azaspiro[3.5]nonan-2-yl)methoxy)-2-methylphenyl)picolinic acid] | – | A (Ymin < 50%) | – | < 0.1
16 | Cc1c(OCCC[C@H]2CCN(CC(=O)Nc3cccc4c(C5CCC(=O)NC5=O)nn(C)c34)CC2(F)F)cccc1-c1ccc(N2CCc3cccc(C(=O)Nc4nc5ccccc5s4)c3C2)nc1C(=O)O (stereo partly drawn) [Compound 197a, 6-(8-(benzo[d]thiazol-2-ylcarbamoyl)-3,4-dihydroisoquinolin-2(1H)-yl)-3-(3-(3-((4S)-1-(2-((3-(2,6-dioxopiperidin-3-yl)-1-methyl-1H-indazol-7-yl)amino)-2-oxoethyl)-3,3-difluoropiperidin-4-yl)propoxy)-2-methylphenyl)picolinic acid] | – | B (50% ≤ Ymin < 70%) | – | 0.1 to 1
